The values that follow come from patent US5451573A, “Substituted cyclohexane derivatives for the treatment of diseases” (Hoechst Aktiengesellschaft, priority 1992, dated 1995).

A word on the inhibition: it is how much of the control response was suppressed.

The first assay deals with lipoxygenase.
Assay: not given
The following applies: M. Nishizawa et al., Chem. Pharm. Bull. 34(3), 1419 (1986); cited from earlier work.
Consider `O=C(/C=C/c1ccc(O)c(O)c1)O[C@@H]1C[C@](O)(C(=O)O)C[C@@H](O)[C@H]1O` [Compound 17, chlorogenic acid], for which the “inhibitor of lipoxygenase (in words)” value was “inhibitor of lipoxygenase”.

In the next assay the target is T1, glucose-6-phosphatase system (Rattus norvegicus, UniProt F7EWB7).
T1 construct: from tissue; host or cells: liver microsomes of male Wistar rats
T1 sequence (F7EWB7 1-429): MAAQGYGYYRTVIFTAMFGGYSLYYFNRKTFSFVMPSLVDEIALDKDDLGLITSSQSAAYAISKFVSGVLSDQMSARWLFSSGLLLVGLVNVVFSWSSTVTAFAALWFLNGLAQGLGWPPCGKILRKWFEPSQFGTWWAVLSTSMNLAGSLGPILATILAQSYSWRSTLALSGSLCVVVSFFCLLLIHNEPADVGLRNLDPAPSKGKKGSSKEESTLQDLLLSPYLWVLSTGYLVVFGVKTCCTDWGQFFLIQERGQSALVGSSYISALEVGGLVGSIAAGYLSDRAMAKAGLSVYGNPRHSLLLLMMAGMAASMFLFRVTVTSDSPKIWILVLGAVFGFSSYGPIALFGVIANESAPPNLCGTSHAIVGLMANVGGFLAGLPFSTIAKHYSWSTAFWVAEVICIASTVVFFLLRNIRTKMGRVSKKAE
Briefly: glucose-6-phosphatase enzyme test in liver microsomes (phosphate released from glucose-6-phosphate). The class given is biochemical, male Wistar rats.
Details: not given
As for the experimental part:
The action of the compounds according to the invention on the glucose-6-phosphatase system was investigated in an enzyme test in liver microsomes.
Fresh liver organs of male Wistar rats were used for the preparation of the microsome fraction containing the glucose-6-phosphatase and processed as described in the literature [Canfield, W. K. and Arion, W. J., J. Biol. Chem. 263, 7458-7460, (1988)]. This microsome fraction can be stored at -70° C. for at least 2 months without significant loss of activity.
The detection of the glucose-6-phosphatase activity was carried out as indicated in the literature (Arion, W. J. in Methods Enzymol. 174, Academic Press 1989, pages 58-67) by determination of the phosphate released from glucose-6-phosphate. 0.1 ml of test mixture contained glucose-6-phosphate (1 mmol/l), the test substance, 0.1 mg of microsome fraction and 100 mmol/l of HEPES buffer (4-(2-hydroxyethyl)piperazine-1-ethanesulfonic acid), pH 7.0. The reaction was started by addition of the enzyme. After 20 min had passed at room temperature, the reaction was stopped by addition of 0.2 ml of phosphate reagent. The sample was incubated at 37° C. for 30 min, and the absorption (A) of the blue color was then measured at 570 nm. The inhibitory activity of the test substance resulted by comparison with a control reaction, which contained no test substance, according to the formula [formula]
For orientation: Liver microsomes are vesicles of endoplasmic reticulum, rich in cytochrome P450 enzymes.
As for `O=C(/C=C/c1ccc(O)c(O)c1)O[C@@H]1C[C@](O)(C(=O)O)C[C@@H](O)[C@H]1O` [Compound 17, chlorogenic acid], the “inhibitor of the glucose-6-phosphatase system (in words)” value is on record as “inhibitors of the glucose-6-phosphatase system”.

The same assay, now with this note: Concentration 1 × 10^-3 M; rat liver microsome fraction, glucose-6-phosphate 1 mmol/l, pH 7.0; read-out: Inhibition [%].
Regarding `O=C(/C=C/c1ccc(O)c(F)c1)O[C@@H]1C[C@](O)(C(=O)O)C[C@@H](O)[C@H]1O` [Compound 10], the inhibition at 1000 µM was 50%.
The same measure, in the same setting: with `O=C(/C=C/c1cccnc1)O[C@@H]1C[C@](O)(C(=O)O)C[C@@H](O)[C@H]1O` [Compound 11] the figure was 20%.
`COc1sccc1/C=C/C(=O)O[C@@H]1C[C@](O)(C(=O)O)C[C@@H](O)[C@H]1O` [Compound 14]: the inhibition at 1000 µM was determined as 20%.
Consider `O=C(/C=C/c1ccc([N+](=O)[O-])cc1)O[C@@H]1C[C@](O)(C(=O)O)C[C@@H](O)[C@H]1O` [Compound 16], for which the inhibition at 1000 µM is 35%.
On to `O=C(/C=C/c1ccc(O)cc1)O[C@@H]1C[C@](O)(C(=O)O)[C@@H](O)[C@@H](O)[C@H]1O` [Compound 20], for which the inhibition at 1000 µM was 30%.
On to `O=C(/C=C/c1ccc(O)cc1)O[C@@H]1C[C@@](O)(C(=O)O)[C@H](O)[C@@H](O)[C@H]1O` [Compound 20α], for which the inhibition at 1000 µM is 10%.
The same measure, in the same setting: with `O=C(/C=C/c1ccc(O)cc1)O[C@@H]1C[C@H](C(=O)O)CC[C@H]1O` [Compound 22] the figure was 20%.
With `O=C(O)C[C@]1(O)C[C@@H](O)[C@@H](O)[C@H](OC(=O)/C=C/c2ccc(O)cc2)C1` [Compound 23], the inhibition at 1000 µM is 30%.
On the same count and under the same terms, the value for `O=C(O)CC[C@]1(O)C[C@@H](O)[C@@H](O)[C@H](OC(=O)/C=C/c2ccc(O)cc2)C1` [Compound 24] was 45%.
On the same count and under the same terms, the value for `O=C(/C=C/c1ccc(O)cc1)N[C@@H]1CC(C(=O)O)=C[C@@H](O)[C@H]1O` [Compound 26] was 15%; that for `O=C(/C=C/c1ccc(O)cc1)O[C@@H]1CC(CP(=O)(O)O)=C[C@@H](O)[C@H]1O` [Compound 28] was 28%.

The assay is the same for the next values; noted with them: pH 7.
On to `COP(=O)(CC1=C[C@@H](O)[C@@H](O)[C@H](OC(=O)/C=C/c2ccc(O)cc2)C1)OC` [Compound 27], for which the inhibition at 1000 µM came out at 15%.

Still in this assay, the particulars now being: rat liver microsome fraction, glucose-6-phosphate 1 mmol/l, pH 7.0, 20 min room temperature; concentration at which 50 % inhibition is printed; read-out: Concentration [M] giving Inhibition 50 [%].
With `O=C(/C=C/c1ccc(O)c(O)c1O)O[C@@H]1C[C@](O)(C(=O)O)C[C@@H](O)[C@H]1O` [Compound 1], the IC50 was determined as 0.00031 M.
On the same count and under the same terms, the value for `O=C(/C=C/c1cccc(O)c1O)O[C@@H]1C[C@](O)(C(=O)O)C[C@@H](O)[C@H]1O` [Compound 2] was 0.00031 M; that for `O=C(/C=C/c1cc(O)ccc1O)O[C@@H]1C[C@](O)(C(=O)O)C[C@@H](O)[C@H]1O` [Compound 3] was 0.00068 M; that for `O=C(/C=C/c1ccc(O)cc1O)O[C@@H]1C[C@](O)(C(=O)O)C[C@@H](O)[C@H]1O` [Compound 4] was 0.00068 M.
On the same count and under the same terms, the value for `COc1cc(/C=C/C(=O)O[C@@H]2C[C@](O)(C(=O)O)C[C@@H](O)[C@H]2O)ccc1O` [Compound 5] was 0.00041 M.
For the compound `COc1ccc(/C=C/C(=O)O[C@@H]2C[C@](O)(C(=O)O)C[C@@H](O)[C@H]2O)cc1O` [Compound 6], the IC50 amounted to 0.00046 M.
As to `O=C(/C=C/c1cccc(O)c1)O[C@@H]1C[C@](O)(C(=O)O)C[C@@H](O)[C@H]1O` [Compound 7], the IC50 turned out to be 0.00053 M.
Still for that read-out and setting: with `O=C(/C=C/c1ccc(O)cc1)O[C@@H]1C[C@](O)(C(=O)O)C[C@@H](O)[C@H]1O` [Compound 8] the figure was 0.00026 M; with `O=C(/C=C/c1ccccc1O)O[C@@H]1C[C@](O)(C(=O)O)C[C@@H](O)[C@H]1O` [Compound 9], 0.00048 M.
Still for that read-out and setting: with `O=C(/C=C/c1ccc(O)c(F)c1)O[C@@H]1C[C@](O)(C(=O)O)C[C@@H](O)[C@H]1O` [Compound 10] the figure was 0.001 M.
Still for that read-out and setting: the value for `O=C(/C=C/c1cccs1)O[C@@H]1C[C@](O)(C(=O)O)C[C@@H](O)[C@H]1O` [Compound 12] was 0.00038 M; that for `O=C(/C=C/c1ccsc1)O[C@@H]1C[C@](O)(C(=O)O)C[C@@H](O)[C@H]1O` [Compound 13] was 0.00078 M.
Take `O=C(/C=C/c1c(O)ccc2ccccc12)O[C@@H]1C[C@](O)(C(=O)O)C[C@@H](O)[C@H]1O` [Compound 15]: the IC50 came out at 0.00046 M.
Same read-out and setting: with `O=C(/C=C/c1ccc(O)c(O)c1)O[C@@H]1C[C@](O)(C(=O)O)C[C@@H](O)[C@H]1O` [Compound 17, chlorogenic acid] the figure was 0.00023 M; with `COc1ccc(/C=C/C(=O)O[C@@H]2C[C@](O)(C(=O)O)C[C@@H](O)[C@H]2O)cc1OC` [Compound 17α], 0.00068 M.
Still for that read-out and setting: with `O=C(O[C@@H]1C[C@](O)(C(=O)O)C[C@@H](O)[C@H]1O)c1ccc(OCc2ccccc2)cc1` [Compound 18] the figure was 0.00068 M; with `O=C(O[C@@H]1C[C@](O)(C(=O)O)C[C@@H](O)[C@H]1O)c1ccc(O)cc1` [Compound 19], 0.00092 M; with `O=C(/C=C/c1ccc(O)cc1)O[C@@H]1C[C@H](C(=O)O)C[C@@H](O)[C@H]1O` [Compound 21], 0.00023 M.
As for `O=C(/C=C/c1ccc(O)cc1)O[C@@H]1CC(C(=O)O)=C[C@@H](O)[C@H]1O` [Compound 25], the IC50 came to 0.00025 M.

The test system of the next assay is glucose-6-phosphatase.
Assay: not given
The following applies: described in the literature; cited from earlier work.
On to `S=C=Nc1ccccc1C=Cc1ccccc1N=C=S` [2,2'-diisothiocyanatostilbene], for which the “non-specific inhibitor of glucose-6-phosphatase (in words)” value (“non-specific inhibitor” below) was “non-specific inhibitors of glucose-6-phosphatase”.
Consider `CC(=O)Oc1ccccc1C=Cc1ccccc1N=C=S` [2-isothiocyanato-2'-acetoxystilbene], for which the “non-specific inhibitor” value is given as “non-specific inhibitors of glucose-6-phosphatase”.
Take `O=C(O)c1cc(SSc2ccc([N+](=O)[O-])c(C(=O)O)c2)ccc1[N+](=O)[O-]` [5,5'-dithiobis-2-nitrobenzoic acid]: the “non-specific inhibitor” value is reported as “non-specific inhibitors of glucose-6-phosphatase”.
Consider `O=C(CCc1ccc(O)cc1)c1c(O)cc(O)cc1O[C@@H]1O[C@H](CO)[C@@H](O)[C@H](O)[C@H]1O` [phlorhizin], for which the “non-specific inhibitor” value was “non-specific inhibitors of glucose-6-phosphatase”.
